Compound `O=C(O)/C=C/c1ccccc1Cl` has a solubility (mole fraction) (in 2-butanone, 272.15 K) of 0.00431, a solubility (mole fraction) (in 2-butanone, 278.45 K) of 0.00535 and a solubility (mole fraction) (in 2-butanone, 283.35 K) of 0.00626. For the same compound, the solubility (mole fraction) (in 2-butanone, 288.35 K) was 0.00733, the solubility (mole fraction) (in 2-butanone, 292.75 K) was 0.00837 and the solubility (mole fraction) (in 2-butanone, 297.75 K) was 0.00968. It also gave a solubility (mole fraction) (in 2-butanone, 302.55 K) of 0.0111, a solubility (mole fraction) (in 2-butanone, 307.05 K) of 0.0126 and a solubility (mole fraction) (in 2-butanone, 312.35 K) of 0.0145. The solubility (mole fraction) (in 2-butanone, 317.05 K) was 0.0164, the solubility (mole fraction) (in 2-butanone, 321.45 K) was 0.0183 and the solubility (mole fraction) (in 2-pentanone, 272.15 K) was 0.00424. It also gave a solubility (mole fraction) (in 2-pentanone, 278.45 K) of 0.00526, a solubility (mole fraction) (in 2-pentanone, 283.35 K) of 0.00618 and a solubility (mole fraction) (in 2-pentanone, 288.35 K) of 0.00723. The solubility (mole fraction) (in 2-pentanone, 292.75 K) was 0.00827, the solubility (mole fraction) (in 2-pentanone, 297.75 K) was 0.0096 and the solubility (mole fraction) (in 2-pentanone, 302.55 K) was 0.011. It also gave a solubility (mole fraction) (in 2-pentanone, 307.05 K) of 0.0125, a solubility (mole fraction) (in 2-pentanone, 312.35 K) of 0.0144 and a solubility (mole fraction) (in 2-pentanone, 317.05 K) of 0.0163. It also gave a solubility (mole fraction) (in 2-pentanone, 321.45 K) of 0.0182, a solubility (mole fraction) (in acetone, 272.15 K) of 0.00376 and a solubility (mole fraction) (in acetone, 278.45 K) of 0.00474. It also gave a solubility (mole fraction) (in acetone, 283.35 K) of 0.00563, a solubility (mole fraction) (in acetone, 288.35 K) of 0.00668 and a solubility (mole fraction) (in acetone, 292.75 K) of 0.00771. The solubility (mole fraction) (in acetone, 297.75 K) was 0.00907, the solubility (mole fraction) (in acetone, 302.55 K) was 0.0105 and the solubility (mole fraction) (in acetone, 307.05 K) was 0.012. It also gave a solubility (mole fraction) (in acetone, 312.35 K) of 0.014, a solubility (mole fraction) (in acetone, 317.05 K) of 0.016 and a solubility (mole fraction) (in acetone, 321.45 K) of 0.0181. It also gave a solubility (mole fraction) (in acetonitrile, 272.15 K) of 0.000253, a solubility (mole fraction) (in acetonitrile, 278.45 K) of 0.000362 and a solubility (mole fraction) (in acetonitrile, 283.35 K) of 0.000474. For the same compound, the solubility (mole fraction) (in acetonitrile, 288.35 K) was 0.000617, the solubility (mole fraction) (in acetonitrile, 292.75 K) was 0.000773 and the solubility (mole fraction) (in acetonitrile, 297.75 K) was 0.000994. For the same compound, the solubility (mole fraction) (in acetonitrile, 302.55 K) was 0.00125, the solubility (mole fraction) (in acetonitrile, 307.05 K) was 0.00154 and the solubility (mole fraction) (in acetonitrile, 312.35 K) was 0.00195. The solubility (mole fraction) (in acetonitrile, 317.05 K) was 0.0024, the solubility (mole fraction) (in acetonitrile, 321.45 K) was 0.00289 and the solubility (mole fraction) (in ethanol, 272.15 K) was 0.00229. The solubility (mole fraction) (in ethanol, 278.45 K) was 0.00295, the solubility (mole fraction) (in ethanol, 283.45 K) was 0.0036 and the solubility (mole fraction) (in ethanol, 288.35 K) was 0.00431. It also gave a solubility (mole fraction) (in ethanol, 292.85 K) of 0.00508, a solubility (mole fraction) (in ethanol, 298.15 K) of 0.00614 and a solubility (mole fraction) (in ethanol, 302.95 K) of 0.00722. For the same compound, the solubility (mole fraction) (in ethanol, 307.35 K) was 0.00833, the solubility (mole fraction) (in ethanol, 312.05 K) was 0.00969 and the solubility (mole fraction) (in ethanol, 316.55 K) was 0.0112. The solubility (mole fraction) (in ethanol, 321.55 K) was 0.013, the solubility (mole fraction) (in ethyl acetate, 272.15 K) was 0.00231 and the solubility (mole fraction) (in ethyl acetate, 278.45 K) was 0.00294. For the same compound, the solubility (mole fraction) (in ethyl acetate, 283.35 K) was 0.00351, the solubility (mole fraction) (in ethyl acetate, 288.35 K) was 0.00417 and the solubility (mole fraction) (in ethyl acetate, 292.75 K) was 0.00484. For the same compound, the solubility (mole fraction) (in ethyl acetate, 297.75 K) was 0.00571, the solubility (mole fraction) (in ethyl acetate, 302.55 K) was 0.00665 and the solubility (mole fraction) (in ethyl acetate, 307.05 K) was 0.00764. For the same compound, the solubility (mole fraction) (in ethyl acetate, 312.35 K) was 0.00894, the solubility (mole fraction) (in ethyl acetate, 317.05 K) was 0.0102 and the solubility (mole fraction) (in ethyl acetate, 321.45 K) was 0.0116. For the same compound, the solubility (mole fraction) (in ethyl formate, 272.15 K) was 0.000925, the solubility (mole fraction) (in ethyl formate, 278.45 K) was 0.00124 and the solubility (mole fraction) (in ethyl formate, 283.35 K) was 0.00155. The solubility (mole fraction) (in ethyl formate, 288.35 K) was 0.00193, the solubility (mole fraction) (in ethyl formate, 292.75 K) was 0.00232 and the solubility (mole fraction) (in ethyl formate, 297.75 K) was 0.00285. It also gave a solubility (mole fraction) (in ethyl formate, 302.55 K) of 0.00345, a solubility (mole fraction) (in ethyl formate, 307.05 K) of 0.0041 and a solubility (mole fraction) (in ethyl formate, 312.35 K) of 0.00497. The solubility (mole fraction) (in ethyl formate, 317.05 K) was 0.0059, the solubility (mole fraction) (in ethyl formate, 321.45 K) was 0.00688 and the solubility (mole fraction) (in isobutanol, 272.15 K) was 0.0013. The solubility (mole fraction) (in isobutanol, 278.45 K) was 0.00167, the solubility (mole fraction) (in isobutanol, 283.45 K) was 0.00211 and the solubility (mole fraction) (in isobutanol, 288.35 K) was 0.00266. The solubility (mole fraction) (in isobutanol, 292.85 K) was 0.00324, the solubility (mole fraction) (in isobutanol, 298.15 K) was 0.00403 and the solubility (mole fraction) (in isobutanol, 302.95 K) was 0.00489. The solubility (mole fraction) (in isobutanol, 307.35 K) was 0.00591, the solubility (mole fraction) (in isobutanol, 312.05 K) was 0.00724 and the solubility (mole fraction) (in isobutanol, 316.55 K) was 0.00855. The solubility (mole fraction) (in isobutanol, 321.55 K) was 0.0106, the solubility (mole fraction) (in isopentanol, 272.15 K) was 0.00208 and the solubility (mole fraction) (in isopentanol, 278.45 K) was 0.00259. The solubility (mole fraction) (in isopentanol, 283.45 K) was 0.00322, the solubility (mole fraction) (in isopentanol, 288.35 K) was 0.00396 and the solubility (mole fraction) (in isopentanol, 292.85 K) was 0.00475. It also gave a solubility (mole fraction) (in isopentanol, 298.15 K) of 0.0058, a solubility (mole fraction) (in isopentanol, 302.95 K) of 0.00691 and a solubility (mole fraction) (in isopentanol, 307.35 K) of 0.00821. It also gave a solubility (mole fraction) (in isopentanol, 312.05 K) of 0.00988, a solubility (mole fraction) (in isopentanol, 316.55 K) of 0.0115 and a solubility (mole fraction) (in isopentanol, 321.55 K) of 0.014. For the same compound, the solubility (mole fraction) (in isopropanol, 272.15 K) was 0.00181, the solubility (mole fraction) (in isopropanol, 278.45 K) was 0.00245 and the solubility (mole fraction) (in isopropanol, 283.45 K) was 0.00309. For the same compound, the solubility (mole fraction) (in isopropanol, 288.35 K) was 0.00385, the solubility (mole fraction) (in isopropanol, 292.85 K) was 0.00468 and the solubility (mole fraction) (in isopropanol, 298.15 K) was 0.00585. The solubility (mole fraction) (in isopropanol, 302.95 K) was 0.00712, the solubility (mole fraction) (in isopropanol, 307.35 K) was 0.00848 and the solubility (mole fraction) (in isopropanol, 312.05 K) was 0.0101. It also gave a solubility (mole fraction) (in isopropanol, 316.55 K) of 0.012, a solubility (mole fraction) (in isopropanol, 321.55 K) of 0.0144 and a solubility (mole fraction) (in methanol, 272.15 K) of 0.00174. For the same compound, the solubility (mole fraction) (in methanol, 278.45 K) was 0.00224, the solubility (mole fraction) (in methanol, 283.45 K) was 0.00273 and the solubility (mole fraction) (in methanol, 288.35 K) was 0.00328. The solubility (mole fraction) (in methanol, 292.85 K) was 0.00387, the solubility (mole fraction) (in methanol, 298.15 K) was 0.00465 and the solubility (mole fraction) (in methanol, 302.95 K) was 0.00549. It also gave a solubility (mole fraction) (in methanol, 307.35 K) of 0.0064, a solubility (mole fraction) (in methanol, 312.05 K) of 0.00739 and a solubility (mole fraction) (in methanol, 316.55 K) of 0.00857. For the same compound, the solubility (mole fraction) (in methanol, 321.55 K) was 0.01, the solubility (mole fraction) (in methyl acetate, 272.15 K) was 0.00189 and the solubility (mole fraction) (in methyl acetate, 278.45 K) was 0.00244. For the same compound, the solubility (mole fraction) (in methyl acetate, 283.35 K) was 0.00296, the solubility (mole fraction) (in methyl acetate, 288.35 K) was 0.00358 and the solubility (mole fraction) (in methyl acetate, 292.75 K) was 0.00422. The solubility (mole fraction) (in methyl acetate, 297.75 K) was 0.00505, the solubility (mole fraction) (in methyl acetate, 302.55 K) was 0.00596 and the solubility (mole fraction) (in methyl acetate, 307.05 K) was 0.00694. For the same compound, the solubility (mole fraction) (in methyl acetate, 312.35 K) was 0.00823, the solubility (mole fraction) (in methyl acetate, 317.05 K) was 0.00956 and the solubility (mole fraction) (in methyl acetate, 321.45 K) was 0.0109. For the same compound, the solubility (mole fraction) (in n-butanol, 272.15 K) was 0.00231, the solubility (mole fraction) (in n-butanol, 278.45 K) was 0.00288 and the solubility (mole fraction) (in n-butanol, 283.45 K) was 0.00356. For the same compound, the solubility (mole fraction) (in n-butanol, 288.35 K) was 0.00438, the solubility (mole fraction) (in n-butanol, 292.85 K) was 0.00522 and the solubility (mole fraction) (in n-butanol, 298.15 K) was 0.00636. The solubility (mole fraction) (in n-butanol, 302.95 K) was 0.00757, the solubility (mole fraction) (in n-butanol, 307.35 K) was 0.00895 and the solubility (mole fraction) (in n-butanol, 312.05 K) was 0.0107. The solubility (mole fraction) (in n-butanol, 316.55 K) was 0.0124, the solubility (mole fraction) (in n-butanol, 321.55 K) was 0.0151 and the solubility (mole fraction) (in n-pentanol, 272.15 K) was 0.00268. For the same compound, the solubility (mole fraction) (in n-pentanol, 278.45 K) was 0.0033, the solubility (mole fraction) (in n-pentanol, 283.45 K) was 0.00404 and the solubility (mole fraction) (in n-pentanol, 288.35 K) was 0.00491. The solubility (mole fraction) (in n-pentanol, 292.85 K) was 0.00583, the solubility (mole fraction) (in n-pentanol, 298.15 K) was 0.00704 and the solubility (mole fraction) (in n-pentanol, 302.95 K) was 0.00832. For the same compound, the solubility (mole fraction) (in n-pentanol, 307.35 K) was 0.00977, the solubility (mole fraction) (in n-pentanol, 312.05 K) was 0.0116 and the solubility (mole fraction) (in n-pentanol, 316.55 K) was 0.0134. It also gave a solubility (mole fraction) (in n-pentanol, 321.55 K) of 0.0162, a solubility (mole fraction) (in n-propanol, 272.15 K) of 0.00202 and a solubility (mole fraction) (in n-propanol, 278.45 K) of 0.00267. The solubility (mole fraction) (in n-propanol, 283.45 K) was 0.00332, the solubility (mole fraction) (in n-propanol, 288.35 K) was 0.00408 and the solubility (mole fraction) (in n-propanol, 292.85 K) was 0.0049. It also gave a solubility (mole fraction) (in n-propanol, 298.15 K) of 0.00602, a solubility (mole fraction) (in n-propanol, 302.95 K) of 0.00723 and a solubility (mole fraction) (in n-propanol, 307.35 K) of 0.00848. The solubility (mole fraction) (in n-propanol, 312.05 K) was 0.01, the solubility (mole fraction) (in n-propanol, 316.55 K) was 0.0117 and the solubility (mole fraction) (in n-propanol, 321.55 K) was 0.0139. The solubility (mole fraction) (in toluene, 272.15 K) was 0.000149, the solubility (mole fraction) (in toluene, 278.45 K) was 0.000225 and the solubility (mole fraction) (in toluene, 283.35 K) was 0.000307. The solubility (mole fraction) (in toluene, 288.35 K) was 0.000415, the solubility (mole fraction) (in toluene, 292.75 K) was 0.000538 and the solubility (mole fraction) (in toluene, 297.75 K) was 0.000716. For the same compound, the solubility (mole fraction) (in toluene, 302.55 K) was 0.000932, the solubility (mole fraction) (in toluene, 307.05 K) was 0.00119 and the solubility (mole fraction) (in toluene, 312.35 K) was 0.00156. It also gave a solubility (mole fraction) (in toluene, 317.05 K) of 0.00197 and a solubility (mole fraction) (in toluene, 321.45 K) of 0.00246.

From BigSolDB 2.1
